From patent US6451837B1, “Neuroprotective effects of mitogen-activated protein kinase (MAPK) cascade inhibitors” (priority 1999, dated 2002)

Assays:
Type in all cases: cell-based, Wistar rat
[1] = test system: cultured hippocampal tissue explants; assay: Cell death induced by transfer to fresh culture medium in cultured hippocampal slices, propidium iodide fluorescence
Protocol: (§1) Seven day old Wistar rat pups were anaesthetized with fluothane, decapitated and transverse hippocampal slices (400 microns) were cultured for 12 days on 6-well tissue culture plates containing 1 ml of culture medium. The medium composition was 50% minimal essential medium (MEM), 25% horse serum, 25% Earl's balanced salt solution with D-glucose and HEPES, penicillin G and streptomycin sulfate, 5000 units/ml and 5 μg/ml respectively and the pH, 7.15. Slices were cultured at 36.5° C., 100% humidity, 95% air and 5% CO2 atmosphere, and were fed twice weekly by 50% medium exchange. All drugs were dissolved in water or dimethylsulfoxide (DMSO, final concentration was 0.1%) to make stock solutions. Controls for DMSO effects were performed where appropriate. To apply a drug, the stock solution was dissolved in 1 ml of fresh culture medium to make a desired concentration. Then, hippocampal slices were transferred for a specified time interval to the fresh medium containing the drug. To terminate the drug action, slices were again transferred to a fresh medium containing 2 mg/ml propidium iodide (PI). The medium temperature was kept at 36° C. during the transfers. Since the change of medium induced nerve cell death, control experiments were performed by transferring hippocampal slices an equal number of times into the fresh medium with the intervals between transfers equal to the time interval that slices were exposed to the drug. In a separate series of experiments the medium replacement was performed twice with a 30 minute interval in order to induce cell death. Cell death was measured as the PI fluorescence intensity by using MRC-600 Laser Scanning Confocal Imaging System. PI was added to the medium 30 minutes prior to taking control images (immediately before the drug treatment). […] Each experiment was performed at least in triplicate, on 5-6 slices each time and data expressed as an average of all experiments. Cell death index was derived from PI fluorescence intensity normalized to the intensity values obtained after the 48 hour exposure of slices to an ambient temperature of 4° C. […]

[2] = test system: cultured hippocampal tissue explants; assay: NMDA-induced cell death in cultured hippocampal slices, propidium iodide fluorescence; settings: for number of dead cells lower than in explants treated with NMDA alone: staurosporine 0.2 μM; for neuroprotection to nerve cells, as described in Example 1: PD098059 about 30-90 μM, apigenin about 25-100 μM; for reduction of NMDA toxicity: treated 2 hours prior to NMDA 50 μM, PD098059 30-90 μM, wortmannin 1-5 μM, FIG. 2-4
[3] = test system: cultured hippocampal tissue explants; assay: Cell death induced by amyloid β-protein fragment 25-35 in cultured hippocampal slices; settings: 30-90 μM for 2 hours prior to the addition of toxic peptides
Protocol: as §1, with “To terminate the drug action, slices were again transferred to a fresh medium containing 2 mg/ml propidium iodide (PI). The medium temperature was kept at 36° C. during the transfers. Since the change of medium induced nerve cell death, control experiments were performed by transferring hippocampal slices an equal number of times into the fresh medium with the intervals between transfers equal to the time interval that slices were exposed to the drug. In a separate series of experiments the medium replacement was performed twice with a 30 minute interval in order to induce cell death.” left out, “System.” for “System. PI was added to the medium 30 minutes prior to taking control images (immediately before the drug treatment).”

[4] = 24 hours after NMDA exposure, FIG. 5

SMILES: NC(CCCP(=O)(O)O)C(=O)O (stereo not shown) [AP5]
- block of the increase in cell death caused by transfers to fresh medium ([1]; AP5 20 μM, CA1-CA4 and dentate gyrus): not blocked

SMILES: CN[C@H](CC(=O)O)C(=O)O [NMDA, N-methyl-D-aspartate]
- cells killed, relative to 4° C. exposure taken as 100% of cells ([2]; 50 μM NMDA, 30 minutes exposure): approximately 30%
- cell death in the dentate gyrus ([2]; NMDA 2.5-500 μM): did not induce concentration-dependent increase in cell death
- cell death in the CA1-CA4 region of the hippocampus ([2]; NMDA 2.5-500 μM for 30 minutes): marked cell death

SMILES: COc1cccc(-c2cc(=O)c3ccccc3o2)c1N [PD098059, 2-(2′-amino-3′methoxyphenyl)-oxanaphthalen-4-one]
- number of dead cells lower than in explants treated with staurosporine [2, 4]: 33%
- number of dead cells lower than in explants treated with NMDA alone [2, 4]: 95%
- neuroprotection to nerve cells, as described in Example 1 [2]: effective in providing neuroprotection
- reduction of NMDA-induced cell death ([2]; applied immediately after NMDA): effective in reducing NMDA-induced cell death
- reduction of NMDA toxicity [2]: significantly reduced NMDA toxicity
- cell death after exposure to fresh medium at 24 hours ([1]; 24 hours, PD098059 30-90 μM for 2 hours prior, wortmannin 1 μM, FIG. 6): significantly reduced cell death
- cell death after exposure to fresh medium at 72 hours ([1]; 72 hours, PD098059 30-90 μM for 2 hours prior, wortmannin 1 μM, FIG. 6): significantly reduced cell death
- cell death induced by toxic amyloid peptides [3]: prevented cell death

SMILES: O=c1cc(-c2ccc(O)cc2)oc2cc(O)cc(O)c12 [apigenin]
- neuroprotection to nerve cells, as described in Example 1 [2]: effective in providing neuroprotection

SMILES: N[C@H](CCCP(=O)(O)O)C(=O)O [d-APV]
- block of NMDA-induced cell death ([2]; slices exposed to NMDA for 30 minutes): could be blocked

SMILES: CN[C@@H]1C[C@H]2O[C@@](C)([C@@H]1OC)n1c3ccccc3c3c4c(c5c6ccccc6n2c5c31)C(=O)NC4 [staurosporine]
- number of dead cells lower than in explants treated with NMDA alone [2, 4]: 45%
- reduction of NMDA toxicity [2]: somewhat effective
